Data reported in the supplement of paper PMC10307832.

Assays:
Test in all cases: relative viability (nuclei count vs DMSO), 5 days (fraction); higher = more cells survive
Erlotinib + AZD7762 = compound: C#Cc1cccc(Nc2ncnc3cc(OCCOC)c(OCCOC)cc23)c1 [Erlotinib] + NC(=O)Nc1cc(-c2cccc(F)c2)sc1C(=O)N[C@H]1CCCNC1 [AZD7762] (partner 0.2 µM)
Summary of the method: (§1)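 The day after seeding in 1536-well plates, lung cancer cell lines were treated by pin tool with a single drug, or with a fixed anchor-drug dose together with five library-drug doses (not always all listed) in √10 steps. After 5 days, a combined fix-and-stain solution (final 0.05% Triton X-100, 1% formaldehyde, 1 ug/ml Hoechst) was added. Nuclei counted on 4× images gave relative viability as treated counts over vehicle counts, reported as the median of duplicate plates.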

AT9283 + Pemetrexed = compound: O=C(Nc1c[nH]nc1-c1nc2ccc(CN3CCOCC3)cc2[nH]1)NC1CC1 [AT9283] + Nc1nc2[nH]cc(CCc3ccc(C(=O)N[C@@H](CCC(=O)O)C(=O)O)cc3)c2c(=O)[nH]1 [Pemetrexed] (partner 0.2 µM)
Summary of the method: as §1

AT9283 + Trametinib = compound: O=C(Nc1c[nH]nc1-c1nc2ccc(CN3CCOCC3)cc2[nH]1)NC1CC1 [AT9283] + CC(=O)Nc1cccc(-n2c(=O)n(C3CC3)c(=O)c3c(Nc4ccc(I)cc4F)n(C)c(=O)c(C)c32)c1 [Trametinib] (partner 0.02 µM)
Summary of the method: as §1

Erlotinib + Alpelisib = compound: C#Cc1cccc(Nc2ncnc3cc(OCCOC)c(OCCOC)cc23)c1 [Erlotinib] + Cc1nc(NC(=O)N2CCC[C@H]2C(N)=O)sc1-c1ccnc(C(C)(C)C(F)(F)F)c1 [Alpelisib] (partner 2 µM)
Summary of the method: as §1

Erlotinib + Linsitinib = compound: C#Cc1cccc(Nc2ncnc3cc(OCCOC)c(OCCOC)cc23)c1 [Erlotinib] + C[C@]1(O)C[C@@H](c2nc(-c3ccc4ccc(-c5ccccc5)nc4c3)c3c(N)nccn32)C1 [Linsitinib] (partner 1 µM)
Summary of the method: as §1

Cell Line	relative viability (Erlotinib + AZD7762; first compound 0.02 µM)	relative viability (Erlotinib + AZD7762; first compound 0.2 µM)	relative viability (Erlotinib + AZD7762; first compound 0.6325 µM)	relative viability (Erlotinib + AZD7762; first compound 2 µM)	relative viability (AT9283 + Pemetrexed; first compound 0.003 µM)	relative viability (AT9283 + Pemetrexed; first compound 0.03 µM)	relative viability (AT9283 + Pemetrexed; first compound 0.09487 µM)	relative viability (AT9283 + Pemetrexed; first compound 0.3 µM)	relative viability (AT9283 + Trametinib; first compound 0.003 µM)	relative viability (AT9283 + Trametinib; first compound 0.03 µM)	relative viability (AT9283 + Trametinib; first compound 0.09487 µM)	relative viability (AT9283 + Trametinib; first compound 0.3 µM)	relative viability (Erlotinib + Alpelisib; first compound 0.02 µM)	relative viability (Erlotinib + Alpelisib; first compound 0.6325 µM)	relative viability (Erlotinib + Alpelisib; first compound 2 µM)	relative viability (Erlotinib + Linsitinib; first compound 0.02 µM)	relative viability (Erlotinib + Linsitinib; first compound 0.2 µM)	relative viability (Erlotinib + Linsitinib; first compound 0.6325 µM)	relative viability (Erlotinib + Linsitinib; first compound 2 µM)	relative viability (Erlotinib + Alpelisib; first compound 0.2 µM)
NCI-H522	0.812	0.893	1.02	0.833	0.949	0.78	0.746	0.499	0.736	0.811	0.599	0.415								
ChaGo-K-1		0.922	0.845	0.76	0.239	0.247	0.188	0.166	0.78	0.844	0.494	0.205								
NCI-H1563					0.751	0.66	0.559	0.513					0.931	0.952	0.799	1.2	1.23	1.2	1.15	
A549													0.709	0.728	0.595	0.546	0.523	0.63	0.489	0.68
IA-LM													0.984	0.7	0.789	0.62	0.578	0.55	0.595	
NCI-H661					0.932	0.449	0.405	0.385	0.571	0.441	0.423	0.323	0.545	0.782	0.426	0.731	0.432	0.663	0.493	0.556
NCI-H2009					1.03	0.983	0.713	0.243	0.346	0.267	0.17	0.0856	1.24	1.17	1.13	1.26	1.15	1.2	1.22	1.16
SK-MES-1					1.07	0.843	0.429	0.218	0.643	0.594	0.541	0.276	0.926	0.533	0.298	1.09	0.767	0.537	0.434	0.536
NCI-H727	0.455	0.488	0.437	0.463					0.378	0.418	0.359	0.347	0.612	0.459	0.463	0.284	0.349	0.282	0.232	0.48
NCI-H1650					0.358	0.362	0.361	0.28	0.604	0.545	0.399	0.179								
SW 1573					0.813	0.302	0.182	0.121	0.597	0.174	0.17	0.143	0.805	0.87		0.81	0.724	0.797	0.853	0.706
COR-L 105					1.08	0.699	0.341	0.422	0.399	0.395	0.328	0.297	1.09	0.477	0.243	0.907	0.532	0.385	0.289	0.659
